The text below walks through data of US20200291444A1, “Macrocyclisation Tags” (Oxford University Innovation LTD, priority 2017, published 2020).

Changes are numbered by the printed parent chain. Names may count otherwise. “And” between values parts separate entries of the source, which are not always exact repeats. Identical values can stand only once. No end group written: not given here.

Test [1] has as its target PCY1:S562A. Briefly: ITC equilibrium binding to PCY1:S562A. On the set-up: species or system Saponaria vaccaria. As to the method: All PCY1 samples were buffer-exchanged or solubilized into buffer F and further diluted in the same batch of buffer F, in order to minimize buffer mismatches. ITC binding experiments were performed using a cell solution containing PCY1:S562A and a titrant solution with each peptide used. […] The measurements were performed at a stir speed of 750 rpm at 25° C. using a reference power of 10 μcal/s, except for A1-NH2 (5 μcal/s). A buffer titration control in which peptide was titrated into buffer was performed for each experiment. Data processing, fitting to a non-linear one-site binding model, and data plotting was performed using MicroCal PEAQ ITC analysis software (Malvern). […] The measurement was performed in buffer at 30° C., at 750 rpm using a reference power of 5 μcal/s.

Test [2] relates to PCY1. Put plainly: LC/MS steady-state kinetics of macrocyclisation by PCY1. The class given is biochemical, Saponaria vaccaria. Conditions: for Km: read-out: Km (table head prints Kin). Here is the method: (§1) All kinetic measurements (activity tests, progress curves and initial-rate experiments) were performed as discontinuous assays analyzing samples via LC/MS or MALDI (10-mer activity test). Reactions were performed in 20 mM Tris pH 8.5, 100 mM NaCl, 5 mM DTT (for progress curves 0.2 mg mL-1 BSA was included).17 Reactions were performed at 30° C. and at various time points 50 μL samples were quenched with 20 μL of 6% (v/v) TFA. Samples (50 μL) were loaded onto a ZORBAX SBC18, 5 μm, 9.4 mm×50 mm (Agilent) column connected to an Agilent LC-MS instrument (G6130B Single Quad, Agilent Technologies). Reactants were separated from products using a gradient from A (H2O with 0.1% formic acid) to 80% B (acetonitrile), at a rate of 1.5 mL/min for 8.75 min. For data analysis, ion count peaks and UV absorbance peaks were integrated using Agilent ChemStation software. For data analysis involving quantitative mass spec integration, calibration curves with macrocyclic peptide product were performed in triplicate in order to linearly correlate ion counts to cyclic product concentration. Data fitting and plotting was performed with Prism 6.
(§2) PCY1 extracted from S. vaccaria seeds has been previously described to have a turnover number of ˜1 h^−1 for PresegA1.^17 The enzyme produced heterologously in E. coli was evaluated by LC/MS-based time course experiments macrocyclizing 200 μM of PresegA1, PresegB1 or PresegF1 with 3.6 μM PCY1. These substrates were chosen as they produce 6, 5 and 9 residue macrocycles, respectively, show variability in the length of the C-terminal tail sequence, and have a different C-terminal core residue (proline in PresegF1, alanine in the other two) (FIG. 1b). PresegB1 was completely macrocyclized in ˜30 min, PresegA1 in ˜50 min and PresegF1 in >3 h (FIG. 2a). We chose to investigate the slowest and fastest substrate by steady-state kinetics using an LC/MS assay and UV280 nm quantification. […] Under the ITC conditions, the measured kcat (0.14±0.01 s^−1) was a factor of three lower than the LC/MS derived values. […] Therefore, we resorted to an LC/MS assay followed by quantification using mass ion counts, relying on a calibration curve employing the macrocyclic peptide product as a standard (FIG. 2b).

Test [3] deals with T1, GmPOPB (Galerina marginata, UniProt H2E7Q8).
T1 construct: His-tag (TEV-cleavable) (cleaved yes); host or cells: E. coli BL21(DE3)
Put plainly: GmPOPB kinetic assays (LC-MS). Type of test: biochemical. Conditions: room temperature. As to the method:
(§3) Comparison between distinct GmPOPB substrates was performed in 50 mM Tris pH 8.0, 50 mM NaCl, 10 mM DTT with varying concentrations of substrates at room temperature. All reactions were performed in duplicates. Reactions were started by adding GmPOPB (50 nM for GmAMA1_C6S, 1 μM for the 13mer and 14mer, and 20 nM for other substrates) to the assay mixture containing buffer and peptide. Reactions were quenched at several time points by adding 50 μL reaction mixture to 20 μL 6% TFA. Reactants were separated from products for quantification by injecting 50 μL of each quenched time point mix onto a ZORBAX SB-C18, 5 μm, 9.4×50 mm (Agilent) column connected to an Agilent LC-MS (G6130B Single Quad, Agilent Technologies). Reactants were separated from products using a gradient from H2O containing 0.1% TFA or 0.1% formic acid and 5% acetonitrile to 50% acetonitrile, at 1.5 ml/min for 8 min. Peaks with ultra violet (UV) absorbance at 220 and 280 nm were integrated, the area of peaks corresponding to reactant and products was used to calculate the percentage of product formed after a correction for differences in the extinction coefficient of each peptide was applied (ε280-25mer=11,000M-1 cm-1, ε220-25mer=46,000M-1 cm-1, ε280-cyclic=5500M-1 cm-1, ε220-cyclic=34,000M-1 cm-1, and ε280-tail=5500M-1 cm-1). The sum of product+substrate was assumed equal to the total initial amount of substrate, product converted from % to concentration. This value was divided by concentration of enzyme present to yield v/Et (min-1). When enzyme mutants and peptides containing alanine in the core region were tested for activity, higher concentrations 5 μM enzyme and 100 μM substrate were incubated for 1 and 18 h at room temperature. For progress curves with the 35mer substrate, measurements were triplicate and quantification relied on ion counts from mass spectrometry. […] Authentic macrocyclic peptide was quantified by UV absorbance. Data showing products formed after 1 and 16 h with truncated peptides were performed twice. […] Kinetic data were fitted to a Michaelis-Menten equation using GraphPad Prism, and values reported are average and standard error of the mean.

In test [4] the target is T2, GmPOPB_S577A (Galerina marginata, UniProt H2E7Q8, S577A).
T2 construct: His-tag (TEV-cleavable) (cleaved yes); made in house; host or cells: E. coli BL21(DE3)
T2 sequence (H2E7Q8 1-730 S577A): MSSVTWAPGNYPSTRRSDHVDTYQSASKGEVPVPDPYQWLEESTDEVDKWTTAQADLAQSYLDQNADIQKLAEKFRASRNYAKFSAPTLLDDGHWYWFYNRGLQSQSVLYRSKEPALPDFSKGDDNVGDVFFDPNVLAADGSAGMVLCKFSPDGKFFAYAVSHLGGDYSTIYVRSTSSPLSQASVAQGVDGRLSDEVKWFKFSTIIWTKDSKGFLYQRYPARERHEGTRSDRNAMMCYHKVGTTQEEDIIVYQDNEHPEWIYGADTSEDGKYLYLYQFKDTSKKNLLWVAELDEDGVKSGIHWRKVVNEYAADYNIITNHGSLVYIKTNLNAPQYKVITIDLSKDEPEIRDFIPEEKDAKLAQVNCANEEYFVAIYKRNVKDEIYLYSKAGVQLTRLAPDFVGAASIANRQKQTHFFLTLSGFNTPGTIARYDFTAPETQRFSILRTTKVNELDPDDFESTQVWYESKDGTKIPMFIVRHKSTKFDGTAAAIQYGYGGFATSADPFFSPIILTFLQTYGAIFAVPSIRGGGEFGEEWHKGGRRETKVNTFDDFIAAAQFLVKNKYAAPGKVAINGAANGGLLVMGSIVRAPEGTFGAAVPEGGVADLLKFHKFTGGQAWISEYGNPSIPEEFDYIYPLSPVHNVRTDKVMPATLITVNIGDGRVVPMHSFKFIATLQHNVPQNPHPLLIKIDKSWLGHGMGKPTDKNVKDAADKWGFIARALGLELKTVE
Briefly: ITC binding to inactive mutant GmPOPB_S577A. Conditions: for Kd: ITC, 20° C., S577A mutant, read-out: Kd.
Method: GmPOPB peptide ligand solutions were prepared in 20 mM Tris pH 8.0 containing 1 mM DTT, prior to buffer exchange by three cycles of dilution in 50 mM Tris pH 8.0 with 50 mM NaCl, 10 mM DTT followed by concentration using a Microsep Advance centrifugal device equipped with a 1 kDa cut off membrane (Pall Corporation). The same three cycles of dilution in 50 mM Tris pH 8.0 with 50 mM NaCl and 10 mM DTT followed by concentration were performed with the protein to be used in the titration using a Vivaspin protein concentrator spin column with a 30 kDa cut off (GE Healthcare). A final dilution to the concentration to be used for titration was performed using the buffer that passed through during the protein buffer exchange, both for the protein and peptide to be used to avoid any possible buffer mismatch. […] Titrations of peptide into protein solutions were conducted at 20° C. For all the titration experiments, a total of 19 injections of 2 μL were made at 120 s intervals. The heat released due to the first injection (0.4 μL) was excluded from data analyses. […] Equilibrium dissociation constants (Kd) as well as ΔH and ΔS values for binding of each peptide to protein were obtained by fitting the calorimetric data with a single-site model using the stoichiometry parameter n fixed at 1.0 using Malvern PEAQ-ITC data analysis software.
We performed all ITC binding experiments at least in duplicate, and calculations of average and standard error of the mean were performed with GraphPad Prism.

Test [5] concerns PCY1. Put plainly: LC/MS time course of macrocyclisation by PCY1. Type of test: biochemical, Saponaria vaccaria. Conditions: 200 μM substrate, 3.6 μM PCY1. As to the method: as §1
as §2, with “These substrates were chosen as they produce 6, 5 and 9 residue macrocycles, respectively, show variability in the length of the C-terminal tail sequence, and have a different C-terminal core residue (proline in PresegF1, alanine in the other two) (FIG. 1b). PresegB1 was completely macrocyclized in ˜30 min, PresegA1 in ˜50 min and PresegF1 in >3 h (FIG. 2a).” left out

Test [6] concerns 25mer and 35mer substrates. Briefly: Activity of GmPOPB mutants with 25mer and 35mer substrates. The class given is biochemical, Galerina marginata. Conditions: 5 μM GmPOPB, 24 h (16 h elsewhere in the source). Here is the method:
as §3, with “Reactions were started by adding GmPOPB (50 nM for GmAMA1_C6S, 1 μM for the 13mer and 14mer, and 20 nM for other substrates) to the assay mixture containing buffer and peptide.” left out, “When enzyme mutants and peptides containing alanine in the core region were tested for activity, higher concentrations 5 μM enzyme and 100 μM substrate were incubated for 1 and 18 h at room temperature.” left out, “mean. […]” for “mean.”
To study other residues involved in hydrolysis and macrocyclisation, additional mutants H698N, R663A, R663Q, R663K, and W695Δ (deletion) were generated. […] H698N was insoluble and not evaluated. […]

Sequence of PCY1 (as listed by the source): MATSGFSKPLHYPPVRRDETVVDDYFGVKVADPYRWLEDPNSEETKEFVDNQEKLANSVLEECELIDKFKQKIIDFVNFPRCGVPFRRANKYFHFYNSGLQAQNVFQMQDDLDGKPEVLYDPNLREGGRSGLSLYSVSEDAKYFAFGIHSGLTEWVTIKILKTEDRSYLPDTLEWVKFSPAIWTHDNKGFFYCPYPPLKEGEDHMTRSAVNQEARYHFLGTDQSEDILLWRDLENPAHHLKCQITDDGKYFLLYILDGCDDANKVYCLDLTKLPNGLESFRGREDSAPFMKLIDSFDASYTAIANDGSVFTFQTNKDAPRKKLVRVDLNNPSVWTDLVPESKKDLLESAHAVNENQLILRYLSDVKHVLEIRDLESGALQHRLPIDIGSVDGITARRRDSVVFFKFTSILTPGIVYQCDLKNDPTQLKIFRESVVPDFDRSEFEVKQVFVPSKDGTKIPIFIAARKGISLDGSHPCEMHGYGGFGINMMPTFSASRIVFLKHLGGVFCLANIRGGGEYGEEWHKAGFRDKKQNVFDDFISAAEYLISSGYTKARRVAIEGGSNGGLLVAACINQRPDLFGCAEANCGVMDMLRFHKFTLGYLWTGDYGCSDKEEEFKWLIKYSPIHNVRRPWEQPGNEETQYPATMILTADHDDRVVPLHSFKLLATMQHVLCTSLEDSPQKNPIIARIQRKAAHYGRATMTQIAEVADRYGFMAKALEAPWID
Sequence of PCY1:S562A (as listed by the source, stated change not applied): as the sequence (as listed by the source) above, with S562A counted along it

On to FSASYSSKPIQT [PresegF1-truncated], for which the “Kd (in words)” value in test [1] (poor peptide solubility at high concentrations) is reported as “too high to be accurately measured”. Moreover, in test [2] (LC/MS (ion counts), 30° C.), the Km (usually the concentration of substrate that gives half-maximal velocity) was found to be 227 µM.
On to H-IWGIGCNPWTAEH [13mer], for which, in test [3], the Km amounted to 25 µM; the kcat (usually the number of substrate molecules converted per active site and unit of time at saturation) was 0.00817 s⁻¹. For the same molecule, in test [4] (13mer versus 35mer, 12 versus 17 amino acid recognition sequence), the “difference in binding affinity (fold)” value is ~20 fold and 10 fold. Moreover, the Kd (commonly the constant that tells how readily two partners part at equilibrium) in test [4] is 2400 ± 100 nM.
As for H-IWGIGCNPWTAEHV [14mer], in test [3], the Km is 380 µM and the turnover number (kcat) turned out to be 0.00967 s⁻¹. Moreover, in test [4], the Kd worked out at 9500 ± 1100 nM.
Take “PresegF1: native linear PCY1 substrate presegetalin F1; produces a 9 residue macrocycle (FSASYSSKPIQTQVSNGMDNASAPV; PresegF1)”: the “time until completely macrocyclized” value in test [5] is reported as above 3 h. The molecule also registered a Kd in test [1] (ITC, 25° C.) of around 200 nM. Further, in test [2] (LC/MS (ion counts), 30° C.), the “kcat (table head prints kout)” value was 0.12 ± 0.01 s⁻¹ and the Michaelis constant (Km) turned out to be 2.4 ± 0.51 µM. The “processing by PCY1 (in words)” value in test [2] (steady state kinetics, FIG. 7) is listed as “rapidly processed”.

B1: S577A: GmPOPB catalytic triad mutant (protein)
chain: T2 sequence (H2E7Q8 1-730 S577A)
For the molecule B1, the “activity of GmPOPB mutant (in words)” value in test [6] was “inactive”.

B2: D661A: GmPOPB catalytic triad mutant (protein, UniProt H2E7Q8 1-730, looked up, variant D661A)
Dual function …: T2 sequence (H2E7Q8 1-730 S577A) with A577S, D661A
On to B2, for which the “activity of GmPOPB mutant (in words)” value in test [6] was “inactive”.
